Consider 16 compounds from ChEMBL document CHEMBL1143058, “Evaluation of a diverse set of potential P1 carboxylic acid bioisosteres in hepatitis C virus NS3 protease inhibitors” (Bioorg Med Chem, 2007).

A short description of assay [1]: Inhibition of HCV NS3 protease in presence of pH 8.0 buffer. More on the design: species or system Hepacivirus hominis.
A further assay deals with Hepatitis C virus. The assay is described as follows: Inhibition of HCV by subgenomic HCV replication assay. The class given is functional, organism-based, Hepacivirus hominis.
Assay [2] can be described thus: Inhibition of HCV NS3 protease in presence of pH 6.0 buffer. Also on record: species or system Hepacivirus hominis.
The nature of assay [3]: Inhibition of HCV NS3 protease in presence of pH 7.5 HEPES buffer. More on the design: species or system Hepacivirus hominis.
A short description of assay [4]: Inhibition of HCV NS3 protease in presence of pH 7.0 buffer. Also on record: species or system Hepacivirus hominis.

A value given as a limit tells only on which side of the number the result lay.

Consider `C=C[C@@H]1C[C@]1(NC(=O)[C@@H]1C[C@@H](Oc2cc(-c3ccccc3)nc3cc(OC)ccc23)CN1C(=O)[C@@H](NC(=O)OC(C)(C)C)C(C)(C)C)C(=O)O`, for which the Ki in assay [1] was found to be 8.7 nM; in assay [2], 0.12 nM; in assay [3], 20 nM; in assay [4], 0.68 nM. Moreover, the EC50 in the assay on Hepatitis C virus is 140 nM.
For `C=C[C@@H]1C[C@]1(NC(=O)[C@@H]1C[C@@H](Oc2cc(-c3ccccc3)nc3cc(OC)ccc23)CN1C(=O)[C@@H](NC(=O)OC(C)(C)C)C(C)(C)C)C(=O)NC#N`, the Ki in assay [1] turned out to be 10.8 nM; in assay [2], 0.14 nM; in assay [3], 6 nM; in assay [4], 0.51 nM. In the assay on Hepatitis C virus, this compound gave an EC50 of 1200 nM.
The matching figures for `C=C[C@@H]1C[C@]1(NC(=O)[C@@H]1C[C@@H](Oc2cc(-c3ccccc3)nc3cc(OC)ccc23)CN1C(=O)[C@@H](NC(=O)OC(C)(C)C)C(C)(C)C)C(=O)NS(=O)(=O)c1ccc(C)cc1`: 0.39 nM, 0.006 nM, 0.22 nM, 0.056 nM and 6 nM.
Regarding `C=C[C@@H]1C[C@]1(NC(=O)[C@@H]1C[C@@H](Oc2cc(-c3ccccc3)nc3cc(OC)ccc23)CN1C(=O)[C@@H](NC(=O)OC(C)(C)C)C(C)(C)C)C(=O)NNc1ccccc1`, the inhibitory constant (Ki) in assay [1] came out at 287 nM; in assay [2] it was 28 nM; in assay [3], 560 nM; in assay [4], 113 nM. The compound also had an EC50 in the assay with Hepatitis C virus greater than 10000 nM.
In turn, `C=C[C@@H]1C[C@]1(NC(=O)[C@@H]1C[C@@H](Oc2cc(-c3ccccc3)nc3cc(OC)ccc23)CN1C(=O)[C@@H](NC(=O)OC(C)(C)C)C(C)(C)C)C(=O)NNC(=O)Cc1ccccc1` yielded an EC50 with Hepatitis C virus greater than 10000 nM. Also, the Ki in assay [3] was determined as 880 nM.
Take `C=C[C@@H]1C[C@]1(NC(=O)[C@@H]1C[C@@H](Oc2cc(-c3ccccc3)nc3cc(OC)ccc23)CN1C(=O)[C@@H](NC(=O)OC(C)(C)C)C(C)(C)C)C(=O)Nc1nccs1`: the Ki in assay [1] stood at 343 nM; in assay [2], 7.7 nM; in assay [3], 821 nM; in assay [4] it was 294 nM. Moreover, in the assay on Hepatitis C virus, the EC50 is greater than 10000 nM.
`C=C[C@@H]1C[C@]1(NC(=O)[C@@H]1C[C@@H](Oc2cc(-c3ccccc3)nc3cc(OC)ccc23)CN1C(=O)[C@@H](NC(=O)OC(C)(C)C)C(C)(C)C)c1nnc(-c2ccccc2)o1` gave an EC50 in the assay with Hepatitis C virus greater than 10000 nM. Moreover, the inhibitory constant (Ki) in assay [3] is 2200 nM.
`C=C[C@@H]1C[C@]1(NC(=O)[C@@H]1C[C@@H](Oc2cc(-c3ccccc3)nc3cc(OC)ccc23)CN1C(=O)[C@@H](NC(=O)OC(C)(C)C)C(C)(C)C)c1nnn[nH]1`: in the assay on Hepatitis C virus, it took 2800 nM to reach a half-maximal effect (EC50). Moreover, the Ki in assay [3] turned out to be 214 nM.
The matching figures for `C=C[C@@H]1C[C@]1(NC(=O)[C@@H]1C[C@@H](Oc2cc(-c3ccccc3)nc3cc(OC)ccc23)CN1C(=O)[C@@H](NC(=O)OC(C)(C)C)C(C)(C)C)C(=O)NNC(=O)c1ccccc1`: greater than 10000 nM and 1600 nM.
With `C=C[C@@H]1C[C@]1(NC(=O)[C@@H]1C[C@@H](Oc2cc(-c3ccccc3)nc3cc(OC)ccc23)CN1C(=O)[C@@H](NC(=O)OC(C)(C)C)C(C)(C)C)C(=O)N[S+]([O-])c1ccc(C)cc1` (stereo not given in full), in the assay on Hepatitis C virus, a half-maximal response (EC50) required 1800 nM. In addition, the Ki in assay [3] was 9 nM.
Regarding `C=C[C@@H]1C[C@]1(NC(=O)[C@@H]1C[C@@H](Oc2cc(-c3ccccc3)nc3cc(OC)ccc23)CN1C(=O)[C@@H](NC(=O)OC(C)(C)C)C(C)(C)C)C(=O)NO`, the EC50 with Hepatitis C virus worked out at 3800 nM. The Ki in assay [3] stood at 425 nM.
`C=C[C@@H]1C[C@]1(NC(=O)[C@@H]1C[C@@H](Oc2cc(-c3ccccc3)nc3cc(OC)ccc23)CN1C(=O)[C@@H](NC(=O)OC(C)(C)C)C(C)(C)C)C(=O)NNS(=O)(=O)c1ccccc1`: a half-maximal effect with Hepatitis C virus (EC50) was put at 1600 nM. Moreover, the Ki in assay [3] is 140 nM.
As to `C=C[C@@H]1C[C@]1(NC(=O)[C@@H]1C[C@@H](Oc2cc(-c3ccccc3)nc3cc(OC)ccc23)CN1C(=O)[C@@H](NC(=O)OC(C)(C)C)C(C)(C)C)C(=O)NS(=O)(=O)C1CC1`, the response in the assay on Hepatitis C virus was half-maximal at 0.9 nM (EC50). Further, the inhibition constant (Ki) in assay [3] is 0.058 nM.
On to `C=C[C@@H]1C[C@]1(NC(=O)[C@@H]1C[C@@H](Oc2cc(-c3ccccc3)nc3cc(OC)ccc23)CN1C(=O)[C@@H](NC(=O)OC(C)(C)C)C(C)(C)C)C(=O)NS(=O)(=O)c1ccccc1`, for which, in the assay on Hepatitis C virus, a half-maximal effect (EC50) was put at 6 nM. For the same compound, the Ki in assay [3] came to 0.34 nM.
Take `C=C[C@@H]1C[C@]1(NC(=O)[C@@H]1C[C@@H](Oc2cc(-c3ccccc3)nc3cc(OC)ccc23)CN1C(=O)[C@@H](NC(=O)OC(C)(C)C)C(C)(C)C)C(=O)NCC(F)(F)F`: the Ki in assay [1] came to 734 nM; in assay [2], 71 nM; in assay [3], 1690 nM; in assay [4], 349 nM. This compound gave an EC50 in the assay with Hepatitis C virus greater than 2000 nM.
Turning to `C=C[C@@H]1C[C@]1(NC(=O)[C@@H]1C[C@@H](Oc2cc(-c3ccccc3)nc3cc(OC)ccc23)CN1C(=O)[C@@H](NC(=O)OC(C)(C)C)C(C)(C)C)C(=O)NNCc1ccccc1`, the concentration giving a half-maximal response (EC50) in the assay on Hepatitis C virus was greater than 10000 nM. Also, the inhibitory constant (Ki) in assay [3] worked out at 1100 nM.

As a reminder, the Ki is a measure of affinity in units of concentration, obtained from inhibition or displacement. By EC50 is commonly meant the concentration giving half of the maximal effect. High values mean a need for much substance, low ones an effect from little substance.
